Assays:
[1] = tested on: lone star ticks, Amblyomma americanum; experiment: two-choice still-air olfactometer (3D-printed), 30 minutes; format: in vivo; details: female A. americanum, 1 ng in 25 μL methanol
Experimental: (§1) All behavioral responses of ticks to experimental substrates were tested in two-choice still-air olfactometers (150 mm×50 mm×17 mm; FIGS. 1a, 1b, 1c). Still-air, instead of moving-air, olfactometers were used because off-host ticks encounter fungi in soil microhabitats such as leaf litter where there is typically little, if any, air movement. Each olfactometer had three inset circular chambers (with an inner diameter of 28 mm) interconnected with inset linear paths (24 mm×10 mm×7 mm).
(§2) Olfactometers were modeled and 3D-printed using Autodesk Fusion 360 (Version 13.2.0.9150), Creality Slicer (Version 4.8.2), and an Ender-3 Pro 3D printer (Creality, Shengzhen, China). Olfactometers were printed using translucent 1.75 mm (±0.03 mm dimensional accuracy) polylactic acid (PLA) filament ([…], OH, U.S.A.). To reduce the porosity of 3D-printed olfactometers, XTC-3D brush-on epoxy coating was applied (Smooth-On Inc., PA, U.S.A.).
(§3) Treatment and control test stimuli were assigned to lateral chambers, alternating the position of stimuli between replicates to account for potential side bias. To initiate an experimental replicate, a single tick was introduced into the central chamber, briefly exposed to human exhale to stimulate movement, and then allowed 30 minutes to respond. […]

[2] = tested on: American dog ticks, Dermacentor variabilis; experiment: as above; format: in vivo; details: female D. variabilis, 1 ng in 25 μL methanol
Experimental: as §1, §2, §3

[3] = tested on: Ixodes scapularis; experiment: two-choice still-air olfactometer (3D-printed), 30 minutes, synthetic fungal metabolites; format: in vivo; details: female I. scapularis
Experimental: All behavioral responses of ticks to experimental substrates were tested in two-choice still-air olfactometers (150 mm×50 mm×17 mm; FIGS. 1a, 1b, 1c). […] Each olfactometer had three inset circular chambers (with an inner diameter of 28 mm) interconnected with inset linear paths (24 mm×10 mm×7 mm).
Treatment and control test stimuli were assigned to lateral chambers, alternating the position of stimuli between replicates to account for potential side bias. To initiate an experimental replicate, a single tick was introduced into the central chamber, briefly exposed to human exhale to stimulate movement, and then allowed 30 minutes to respond. […] Olfactometers were sealed with parafilm and a rectangular lid (150 mm×50 mm×3 mm).
A tick was considered a responder if it was found in a lateral chamber after 30 minutes. After each experiment, olfactometers were cleaned with 70% ethanol and hexane. At the end of each experimental day, olfactometers were washed with Sparkleen (Thermo Fisher Scientific, MA, U.S.A), rinsed with distilled water, and air-dried.
Similarly, geosmin dissolved in 25 μL of methanol was applied at doses of 1.0 ng (Exp. 4), 0.1 ng (Exp. 5), and 0.01 ng (Exp. 6), using 25 μL of methanol as the control stimulus. In each experimental replicate, methanol was allowed 5 minutes to evaporate before a tick was introduced into the central olfactometer chamber.
In each experiment, a watch glass (28 mm diameter) fitted with a congruent piece of filter paper was placed in lateral olfactometer chambers, as shown in FIG. 1. In experiment 7, 1 ng of 2-MIB was dissolved in 25 μL of methanol and applied to the treatment filter paper, and 25 μL of methanol was applied to the corresponding control filter paper. In experiment 8, 1 ng of L-borneol and 1 ng of D-borneol were each dissolved in 25 μL of methanol and applied to the treatment filter paper, and 50 μL of methanol was applied to the control filter paper. In each experimental replicate, methanol was allowed 5 minutes to evaporate before a tick was introduced into the central olfactometer chamber.
In each experimental replicate, methanol was allowed 5 minutes to evaporate before a tick was introduced into the central olfactometer chamber.

[4] = tested on: I. scapularis tick; experiment: two-choice still-air Pyrex glass olfactometer, 20 hours, natural and synthetic ant metabolites; design: species or system Ixodes scapularis; details: in vivo
Experimental: Treatment and control stimuli were assigned to the two lateral chambers, alternating the position of stimuli between replicates to account for potential side bias. Both lateral chambers were also fitted with a wet cotton ball (Thermo Fisher Scientific, MA, U.S.A.) to ensure sufficiently high humidity.
To initiate an experimental replicate, a single I. scapularis tick was introduced into the central chamber, briefly exposed to human exhale to stimulate movement, and then allowed 20 hours to respond. A tick was considered a responder if it was found in a lateral chamber or in a connecting glass tube closer to a lateral chamber than the central chamber, as shown in FIG. 2. To prevent tick escape, all three chambers of the olfactometer were sealed with Parafilm (Bemis, WI, U.S.A.) for the duration (i.e., 20 hours) of the experiment.
To minimize the potential for tick escape, and to prevent ticks from sensing cues (e.g., convective heat, infrared radiation, CO2) originating from experimentalists that initiated or scored experiments, olfactometers (n=10-15) were housed in a plexiglass box (112 cm×24 cm×14 cm). Experiments were run under a 14:10 light/dark cycle, thus enabling ticks to respond to test stimuli while maintaining a circadian rhythm. […]

[5] = dose 1 ng in 25 μL methanol on filter paper

Row | SMILES | deterrence of ticks (treatment vs methanol control) [1] | deterrence of ticks (treatment vs methanol control) [2] | deterrence of ticks (treatment vs methanol control) ([3]; dose 0.01 ng in 25 μL methanol) | deterrence of ticks (treatment vs methanol control) ([3]; dose 0.1 ng in 25 μL methanol) | deterrence of ticks (treatment vs methanol control) [3, 5] | deterrence of ticks (treatment vs DCM control) [4]
1 | CC1(C)[C@@H]2CC[C@@]1(C)[C@](C)(O)C2 [2-MIB, 2-methylisoborneol] | deterred | deterred | not deterred | moderately deterred | strongly deterred | –
2 | O=CO [formic acid] | – | – | – | – | – | deterred neither
3 | CC1CCCC2(C)CCCCC12O (stereo not drawn) [geosmin, reference compound] | – | – | not deterred | not deterred | not deterred | –
